From patent publication US12570614B2, “Phenyl amino pyrimidine compounds and uses thereof” (GlaxoSmithKline LLC, priority 2007, dated 2026)

Columns and labels:
human JAK2 = human JAK2 (Homo sapiens (Human), UniProt O60674); experiment: JAK2 kinase domain Alphascreen enzyme screening; format: biochemical; settings: read-out: JAK2_IC50_nM
Protocol: (§1) For screening purposes, compounds (in 100% DMSO) were warmed at 37° C. for at least 20 minutes before use. A […] stock was initially made in assay buffer, where the final concentration of DMSO was 0.3%. The stocks were then diluted in 384 well Optiplates (Packard) where the final concentration of the compound was 5 μM.
The kinase domain of human JAK2 was amplified from U937 mRNA using the polymerase chain reaction with the following primers: […]
The JAK2 PCR products were cloned into the pDest20 destination vector (Gibco). The JAK2 plasmid was then transformed into competent DH10Bac cells (Gibco), and the recombinant baculovirus was prepared via Sf9 insect cell transfection.
(§2) Baculovirus preparations from each of the JAK family members were infected into one litre of […] (Spodoptera frugiperda) cells (Invitrogen) grown in SF900II serum free medium (Invitrogen) to a cell density of approximately 2×10^6 cells/ml. Cells were infected with virus at a cell culture to virus stock ratio of 20:1. Cells were harvested and lysed 48 hours post infection. The GST-tagged JAK kinase domains were purified by affinity chromatography on a GSH agarose column (Scientifix).
Alphascreen phosphotyrosine acceptor beads followed by streptavidin donor beads at a concentration of 1/100 in stop buffer were added to each well under subdued light and incubated for 2-3 hours. The Alphascreen plates were read on a Packard Fusion Alpha instrument

[1] = test system: BaF3 TELJAK cells (BafT_J2); experiment: Cellular screening, BaF3 TELJAK2 cells (Alamar Blue); format: cell-based; settings: Mus musculus, BaF3; 48-72 hr incubation; read-out: BafT_J2_IC50_μM
Protocol: (§3) For screening purposes, compounds were diluted in 96 well plates at a concentration of 20 μM. Plates were warmed at 37° C. for 30 minutes before the assay was performed.
A TEL/Jak2 fusion was generated by digestion of the TELPCR product with BamH I/Sal I restriction enzymes, digestion of the JAK2 PCR product with Sal I/Not I restriction enzymes, followed by ligation and subcloning of the ligation product into the mammalian expression Vector pTRE 2 (Clontech), which was prepared by digestion with BamH I—Not I restriction enzymes, to give the TEL/Jak2 fusion plasmid pTELJAK2.
(§4) The growth factor dependent myelomonocytic cell line BaF3 bearing the pTET-off plasmid (Clontech) was transfected with either pTELJAK2 or pTELJAK3, and the transfected cells were selected for growth-factor independent cell growth. The BaF3 wild-type cells were cultured in DMEM containing 10% FCS, 10% WEHI 3B conditioned medium. The BaF3 TELJAK cells ([…]) were cultured in DMEM 10% Tet-System Approved FBS (without WEHI 3B conditioned medium).
(§5) Cell suspensions were prepared by harvesting cells from culture (the cells used in this test were in late log phase growth with high viability.) Cells were diluted in the appropriate growth medium, as described above, to 1.1× final concentration (from 50,000 cell/mL to 200,000 cell/mL, depending on cell line).
(§6) Compounds to be tested were added (10 μL, 10× final concentration) to a flat bottomed 96-well plate. The cellular suspension (90 μL per well) was then added, and the plate incubated for 48-72 hr at 37° C., 5% CO2. Alamar Blue 10 μL per well was added and the plates returned to the incubator for a further 4-6 hours.
(§7) Result are given in table 2 where +++ is <1 μM, ++ is <5 μM and + is <20 μM

human JAK3 = human JAK3 (Homo sapiens (Human), UniProt P52333); experiment: JAK3 kinase domain Alphascreen enzyme screening; format: biochemical; settings: read-out: JAK3_ IC50_nM
Chain of human JAK3 (P52333 822-1111): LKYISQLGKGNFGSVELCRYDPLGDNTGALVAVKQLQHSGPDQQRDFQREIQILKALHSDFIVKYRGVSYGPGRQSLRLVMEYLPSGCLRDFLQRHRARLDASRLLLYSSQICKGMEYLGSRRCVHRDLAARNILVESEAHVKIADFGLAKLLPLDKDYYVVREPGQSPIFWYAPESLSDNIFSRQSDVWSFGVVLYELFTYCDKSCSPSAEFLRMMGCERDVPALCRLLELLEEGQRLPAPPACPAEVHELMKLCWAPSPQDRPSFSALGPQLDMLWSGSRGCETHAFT
Protocol: as §1
The kinase domain of human JAK3 was amplified from U937 mRNA using the polymerase chain reaction with the following primers: […]
The JAK3 PCR products were cloned into the pDest20 destination expression vector (Gibco). The JAK3 plasmid was then transformed into competent DH10Bac cells (Gibco), and the recombinant baculovirus was prepared via Sf9 insect cell transfection.
as §2
The compounds were then incubated with substrate in the presence of either […] ATP for 60 or 90 minutes. […] (final concentration 111 μM) or substrate-2 substrate with the sequence biotin-[…] [SEQ ID NO: 16] (final concentration 133 μM). Alphascreen phosphotyrosine acceptor beads followed by streptavidin donor beads at a concentration of 1/100 in stop buffer were added to each well under subdued light and incubated for 2-3 hours. The Alphascreen plates were read on a Packard Fusion Alpha instrument

CTLL2 = experiment: Cellular screening, CTLL2 cells (Alamar Blue); format: cell-based; settings: Mus musculus, CTLL-2; 48-72 hr incubation; read-out: CTLL2_IC50_μM
Protocol: as §3, §5
as §6, with “hours. The plates were then read at 544 nm.” for “hours.”
as §7

BaF3 wild-type cells = experiment: Cellular screening, BaF3 wild-type cells (Alamar Blue); format: cell-based; settings: Mus musculus, 48-72 hr incubation, read-out: BAF3wt_IC50_μM
Protocol: as §3, §4, §5
as §6, with “hours. The plates were then read at 544 nm.” for “hours.”
as §7

Chain of human JAK2 (O60674 849-1124): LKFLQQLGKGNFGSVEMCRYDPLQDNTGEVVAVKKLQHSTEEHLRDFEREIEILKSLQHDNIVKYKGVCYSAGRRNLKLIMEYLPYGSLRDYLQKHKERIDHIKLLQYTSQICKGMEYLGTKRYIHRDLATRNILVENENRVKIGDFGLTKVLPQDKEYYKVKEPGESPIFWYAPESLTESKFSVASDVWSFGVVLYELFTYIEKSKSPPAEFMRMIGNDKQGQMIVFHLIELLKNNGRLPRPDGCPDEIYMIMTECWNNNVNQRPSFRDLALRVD

Row | SMILES | IC50 (human JAK2) | IC50 [1] | IC50 (human JAK3) | IC50 (CTLL2) | IC50 (BaF3 wild-type cells)
1 | N#Cc1ccc(-c2ccnc(Nc3ccc(N4CCOCC4)cc3)n2)cc1Cl [Compound 19, 2-chloro-4-(2-(4-morpholinophenyl-amino)pyrimidin-4-yl)benzonitrile] | > 1000 nM | > 20000 nM | > 1000 nM |  | 
2 | CN1CCN(c2ccc(Nc3nccc(-c4ccc(C(=O)NCC#N)cc4)n3)cc2)CC1 [Compound 44, N-(cyanomethyl)-4-(2-(4-(4-methylpiperazin-1-yl)phenylamino)pyrimidin-4-yl)benzamide] |  |  | < 500 nM | < 5000 nM | < 5000 nM
3 | N#CCNC(=O)c1ccc(-c2ccnc(Nc3ccc(N4CCC(O)CC4)cc3)n2)cc1 [Compound 36, N-(cyanomethyl)-4-(2-(4-(4-hydroxypiperidin-1-yl)phenylamino)pyrimidin-4-yl)benzamide] |  | < 1000 nM | < 100 nM | < 5000 nM | < 5000 nM
4 | Cc1cnc(Nc2ccc(N3CCOCC3)cc2)nc1-c1ccc(C(=O)NCC#N)cc1 [Compound 92, N-(cyanomethyl)-4-(5-methyl-2-(4-morpholinophenyl-amino)pyrimidin-4-yl)benzamide] | < 100 nM |  | < 100 nM | < 1000 nM | 
5 | COc1cc(-c2ccnc(Nc3ccc(N4CCOCC4)cc3)n2)ccc1C(=O)NCC#N [Compound 45, N-(cyanomethyl)-2-methoxy-4-(2-(4-morpholinophenyl-amino)pyrimidin-4-yl)benzamide] | < 100 nM |  | < 100 nM | < 1000 nM | 
6 | N#Cc1cccc(-c2ccnc(Nc3ccc(N4CCOCC4)cc3)n2)c1 [Compound 5, 3-(2-(4-morpholinophenyl-amino)pyrimidin-4-yl)benzonitrile] | < 500 nM | > 20000 nM |  |  | 
7 | COc1cc(Nc2nccc(-c3ccc(F)c(C#N)c3)n2)cc(OC)c1OC [Compound 8, 2-fluoro-5-(2-(3,4,5-trimethoxyphenyl-amino)pyrimidin-4-yl)benzonitrile] | < 500 nM |  |  |  | 
8 | N#Cc1cc(-c2ccnc(Nc3ccc(N4CCOCC4)cc3)n2)ccc1F [Compound 7, 2-fluoro-5-(2-(4-morpholinophenyl-amino)pyrimidin-4-yl)benzonitrile] | > 1000 nM |  |  |  | 
9 | CCOC(=O)c1ccc(-c2ccnc(Nc3ccc(N4CCOCC4)cc3)n2)cc1 [Compound 1, ethyl 4-(2-(4-morpholinophenyl-amino)pyrimidin-4-yl)benzoate] |  | > 20000 nM |  | > 20000 nM | > 20000 nM
10 | O=C(Nc1cc[nH]n1)c1ccc(-c2ccnc(Nc3ccc(N4CCOCC4)cc3)n2)cc1 [Compound 22, 4-(2-(4-morpholinophenyl-amino)pyrimidin-4-yl)-N-(1H-pyrazol-3-yl)benzamide] | > 1000 nM | > 20000 nM | < 500 nM |  | 
11 | N#CCNC(=O)c1ccc(-c2ccnc(Nc3ccc(N4CCSCC4)cc3)n2)cc1 [Compound 25, N-(cyanomethyl)-4-(2-(4-thiomorpholino-phenylamino)pyrimidin-4-yl)benzamide] |  |  |  | < 5000 nM | 
12 | Cc1cc(-c2ccnc(Nc3ccc(N4CCOCC4)cc3)n2)ccc1C(=O)NCC#N [Compound 11, N-(cyanomethyl)-2-methyl-4-(2-(4-morpholinophenyl-amino)pyrimidin-4-yl)benzamide] | < 100 nM |  |  | < 5000 nM | 
13 | N#CCNC(=O)c1ccc(-c2ccnc(Nc3ccc(CN4CCS(=O)(=O)CC4)cc3)n2)cc1 [Compound 90] | < 100 nM |  |  | < 20000 nM | < 1000 nM
14 | CC(C)(C#N)NC(=O)c1ccc(-c2ccnc(Nc3ccc(N4CCOCC4)cc3)n2)cc1 [Compound 23, N-(2-cyanopropan-2-yl)-4-(2-(4-morpholinophenyl-amino)pyrimidin-4-yl)benzamide] | < 1000 nM |  | < 500 nM |  | 
15 | N#CCC(=O)Nc1ccc(-c2ccnc(Nc3ccc(N4CCOCC4)cc3)n2)cc1 [Compound 85, 2-cyano-N-(4-(2-(4-morpholinophenyl-amino)pyrimidin-4-yl)phenyl)acetamide] |  |  |  | < 1000 nM | < 5000 nM
16 | Cc1cnc(Nc2ccc(N3CCCC(O)C3)cc2)nc1-c1ccc(C(=O)NCC#N)cc1 (centres unmarked) [Compound 46] |  |  |  | < 1000 nM | < 5000 nM
